Target: T1, SOS1 protein (Homo sapiens, UniProt Q07889)
T1 sequence (Q07889 1-1333): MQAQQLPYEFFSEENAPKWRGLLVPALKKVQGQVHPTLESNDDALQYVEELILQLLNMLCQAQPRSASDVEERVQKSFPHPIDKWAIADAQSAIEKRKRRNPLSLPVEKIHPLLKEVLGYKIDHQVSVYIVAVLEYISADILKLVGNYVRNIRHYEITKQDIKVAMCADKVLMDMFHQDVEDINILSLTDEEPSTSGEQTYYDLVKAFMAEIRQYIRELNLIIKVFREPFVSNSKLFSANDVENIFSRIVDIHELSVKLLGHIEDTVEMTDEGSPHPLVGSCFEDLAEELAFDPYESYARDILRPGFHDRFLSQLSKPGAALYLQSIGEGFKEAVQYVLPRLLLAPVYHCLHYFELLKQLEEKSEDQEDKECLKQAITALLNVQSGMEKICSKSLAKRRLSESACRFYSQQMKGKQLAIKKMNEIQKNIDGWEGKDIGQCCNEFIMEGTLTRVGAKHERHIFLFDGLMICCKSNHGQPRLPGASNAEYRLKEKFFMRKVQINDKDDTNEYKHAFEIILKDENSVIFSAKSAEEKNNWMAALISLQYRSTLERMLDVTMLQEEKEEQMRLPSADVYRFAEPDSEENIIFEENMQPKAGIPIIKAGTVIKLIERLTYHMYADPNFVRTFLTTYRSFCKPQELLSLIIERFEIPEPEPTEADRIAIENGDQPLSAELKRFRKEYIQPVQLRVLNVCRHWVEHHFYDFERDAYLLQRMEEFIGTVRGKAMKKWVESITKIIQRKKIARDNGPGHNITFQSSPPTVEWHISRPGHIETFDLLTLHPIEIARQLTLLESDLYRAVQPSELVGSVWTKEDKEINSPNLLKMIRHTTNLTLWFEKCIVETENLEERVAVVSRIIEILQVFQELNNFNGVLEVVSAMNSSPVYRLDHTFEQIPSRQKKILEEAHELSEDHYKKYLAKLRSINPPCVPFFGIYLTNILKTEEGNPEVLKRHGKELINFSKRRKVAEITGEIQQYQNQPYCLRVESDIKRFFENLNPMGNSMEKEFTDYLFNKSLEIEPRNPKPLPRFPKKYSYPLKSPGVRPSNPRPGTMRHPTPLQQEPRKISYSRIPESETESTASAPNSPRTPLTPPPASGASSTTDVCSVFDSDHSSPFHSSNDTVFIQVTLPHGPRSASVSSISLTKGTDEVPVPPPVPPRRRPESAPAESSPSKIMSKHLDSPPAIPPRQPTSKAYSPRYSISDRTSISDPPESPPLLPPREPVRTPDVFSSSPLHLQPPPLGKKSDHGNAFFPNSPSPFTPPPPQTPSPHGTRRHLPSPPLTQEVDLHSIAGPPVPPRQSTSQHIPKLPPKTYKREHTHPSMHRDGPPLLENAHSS
Test: SOS1 degradation assay (Western blot) in SW-620 cells
Type: cell-based
Design: host or cells: NCI-H358, A-427, SW-620, DLD-1 (human cancer cell lines)
Settings: SW-620 (KRAS G12V), 24 h; for DC50: read-out: SW620 (G12V) DC50; for Dmax: read-out: SW620 (G12V) Dmax
Description: Test Example 2: SOS1 Degradation Assay
The degradation of SOS1 by the compounds was investigated on KRAS G12C mutant human non-small cell lung cancer cells NCI-H358 (ATCC or Stem Cell Bank, Chinese Academy of Sciences), KRAS G12D mutant human lung cancer cells A-427 (ATCC), KRAS G12V mutant human colorectal adenocarcinoma cells SW-620 (ATCC), and KRAS G13D mutant human colorectal adenocarcinoma epithelial cells DLD-1 (ATCC). The specific procedures were as follows:
0.95 mL of cells were seeded into each well of a 24-well cell culture plate to achieve a cell density of 5×10^5 cells/well; the cell plate was incubated in an incubator at 37° C. with 5% CO2 overnight. Then 50 μL of the compound solution after dilution was added to each of the wells with the corresponding cells, so that the final concentration of the compound was in a range of 0.03-3000 nM. The final concentration of DMSO was 0.25%.
After dosing, the cell plate was incubated in an incubator at 37° C. with 5% CO2 for 24 h. The cell culture medium in the 24-well plate was removed, and the plate was washed twice with 1×PBS. 180 μL of RIPA (strong) lysis buffer (Beyotime, P0013B) supplemented with 1 mM phenylmethylsulfonyl fluoride, a protease inhibitor mixture (Beyotime, P1008), and a protease phosphatase inhibitor mixture (Beyotime, P1045) was added to lyse adherent NCI-H358 cells at the bottom of the cell culture plate. After the plate was left to stand on ice for 30 min, the protein lysate in each well was transferred to a 1.5 mL centrifuge tube and centrifuged at 15000 g for 20 min at 4° C. […] The concentration of total protein in the cell lysate supernatant was determined using the BCA Protein Quantification Kit (Tiangen, PA115-02). […]
The concentration of total protein in the cell lysate was determined by BCA. […] After the blocking, the PVDF membrane was incubated with an SOS1 primary antibody (Abcam, ab140621) at 4° C. overnight, washed with a TBST buffer (2.4 g of Tris, 8.8 g of NaCl, 1.5 mL of Tween 20, with pH adjusted to 7.4, with the volume brought to 1 L) for 30 min (10 min/time), incubated with a secondary antibody (Abcam, ab205718) at room temperature for 2 h, washed with a TBST buffer for 30 min (10 min/time), and finally incubated with Clarity Western ECL Substrate (BIO-RAD, 170-5061) for 5 min for luminescence and color development, and a chemiluminescence imaging system (Clinx, ChemiScope 6200 Touch) was used for color development and protein mapping. […] The gray correction value for each sample was calculated by the formula: gray correction value=(gray value of target protein/gray value of corresponding internal reference)×103. Then the degradation rate was calculated by comparing the gray correction value with the gray correction value of the control group. […]

DC50	Dmax	SMILES
≤ 0.05 µM	80 to 100%	COc1cc2nc(C)nc(N[C@H](C)c3cc(-c4c(Cl)cccc4CN(C)C)cs3)c2cc1[C@H]1CC[C@H](C(=O)N2CCN(CC3CCC4(CC3)CCN(C(=O)c3ccc(Cl)c(N5CCC(=O)NC5=O)c3)CC4)CC2)CC1 [Example 1, 1-(2-chloro-5-(9-((4-((1R,4R)-4-(4-(((R)-1-(4-(2-chloro-6-((dimethylamino)methyl)phenyl)thien-2-yl)ethyl)amino)-7-methoxy-2-methylquinazolin-6-yl)cyclohexane-1-carbonyl)piperazin-1-yl)methyl)-3-azaspiro[5.5]undecane-3-carbonyl)phenyl)dihydropyrimidine-2,4(1H,3H)-dione]
≤ 0.05 µM	80 to 100%	COc1cc2nc(C)nc(N[C@H](C)c3cc(-c4c(Cl)cccc4CN(C)C)cs3)c2cc1[C@H]1CC[C@H](C(=O)N2CCC(CCOCC3CCN(C(=O)c4ccc(Cl)c(N5CCC(=O)NC5=O)c4)CC3)CC2)CC1 [Example 5, 1-(2-chloro-5-(4-((2-(1-((1R,4R)-4-(4-(((R)-1-(4-(2-chloro-6-((dimethylamino)methyl)phenyl)thien-2-yl)ethyl)amino)-7-methoxy-2-methylquinazolin-6-yl)cyclohexane-1-carbonyl)piperidin-4-yl)ethoxy)methyl)piperidine-1-carbonyl)phenyl)dihydropyrimidine-2,4(1H,3H)-dione]
